Experimental data taken from paper PMC4178217, “Quinoline 3-sulfonamides inhibit lactate dehydrogenase A and reverse aerobic glycolysis in cancer cells” (Cancer & Metabolism, 2013).

Columns and labels:
HepG2 cells = assay: 13C NMR spectroscopy of glucose consumption and lactate production, HepG2; type: cell-based, human; conditions: HepG2, 10 μM
Experimental: After this pre-incubation, cells were washed in PBS and resuspended in 400 μL of glucose-free RPMI supplemented with 10% deuterium oxide, 11 mM D-(1,6-^13C2)glucose, and LDHA inhibitor or DMSO. An additional 600 μL of the same medium was gently added to top off the resuspended cells. Five mm NMR tubes with reduced sample depth (Shigemi Inc, Allison Park, PA, USA) were used to ensure that the cells remain inside the active volume of the receiver coil of the probe. […] . Prior to Fourier transformation, sensitivity and resolution were enhanced by applying an exponential line-broadening of 1 Hz over the first 32,000 data points and then zero filled to 256,000 data points. Spectra were analyzed using in-house data analysis software.

Snu398 cells [1] = assay: Cell proliferation and survival, Snu398 (trypan blue, Vi-Cell); type: cell-based, human
Experimental: Sixty thousand Snu398 cells per well were plated in 6-well tissue culture plates in RPMI-1640 medium supplemented with 2.5% charcoal-stripped FBS (Life Technologies). Cells were allowed to attach overnight and then DMSO control or the indicated doses of LDHA inhibitor dissolved in DMSO were added directly to the wells. After 4 to 8 days of incubation in the indicated oxygen conditions, adherent cells were trypsinized, counted, and had their viability assessed by the trypan-blue exclusion method using the Vi-Cell XR Cell Viability Analyzer (Beckman Coulter, Brea, CA, USA). The same procedure was carried out for HepG2 cells, except non-charcoal-stripped FBS was used. For PARP cleavage analysis, both floating and adherent cells were collected after 24 h and the whole-cell extracts were prepared in radioimmunoprecipitation assay (RIPA) buffer (Sigma-Aldrich) supplemented with protease and phosphatase inhibitor cocktails (Sigma-Aldrich). Solubilized proteins were separated by SDS-PAGE, transferred onto nitrocellulose membrane, and detected with each specific antibody.

HCC1937 cells = assay: ECAR after mitochondrial inhibition, breast cancer lines and HCC1937 isogenic shRNA lines; type: cell-based, human
Experimental: A2780 were obtained from the European Collection of Cell Cultures (ECACC, Porton Down, UK), IGROV-1 and U251 were from the National Cancer Institute (NCI, Bethesda, MD, USA), and all other cell lines were from American Type Culture Collection (ATCC, Manassas, VA, USA). The cell lines were authenticated as previously described. All cell lines were maintained in a 37°C 5% CO2-95% humidified air incubator. Breast cancer cell lines were cultured in DMEM (Life Technologies, Carlsbad, CA, USA) supplemented with 5% FBS (Sigma-Aldrich, St. Louis, MO, USA). All other cell lines were maintained in R10 medium (Roswell Park Memorial Institute medium (RPMI)-1640 (Life Technologies) supplemented with 10% FBS). MCF10A cells were supplemented with additional cholera toxin (100 ng/mL), hydrocortisone ([…]), insulin (10 μg/mL), and epidermal growth factor (EGF) (20 ng/mL). […]
For XF96 experiments breast cancer cells were seeded in DMEM without bicarbonate at 16,000/well in XF96 V3 PET plates (Seahorse Biosciences) coated with CellTak (BD Biosciences, San Jose, CA, USA). […] The medium was exchanged with DMEM without bicarbonate prior to readings on the XF96 Analyzer (Seahorse Biosciences).

PKM2 in Snu398 cells = assay: PKM2 tetramerization (native gel, western immunoblotting); type: cell-based, human; conditions: Snu398, 6 h
Experimental: One and a half million cells per well were plated in 6-well tissue culture plates in R10 medium and allowed to attach overnight. The following morning, cells were washed and medium replaced with 2 mL/well of low-glucose medium. DMSO control or the indicated doses of LDHA inhibitor dissolved in DMSO were added to the wells and cells were incubated at 37°C for 6 h. Following the incubation, cells were washed, scraped into 200 μl of distilled de-ionized water and homogenized on ice using OMNI THq homogenizer (Omni International, Kennesaw, GA, USA). Homogenates were cleared by centrifugation and protein concentration measured by bicinchoninic acid (BCA) assay (Thermo Fisher Scientific, Waltham, MA, USA). PK activity was determined using PK Activity kit (BioVision Research Products) per manufacturer’s instructions and normalized to protein concentration. For detection of PKM2 oligomerization, the same protein samples were separated by non-denaturing gel electrophoresis using the NativePAGE™ gel system (Life Technologies), transferred onto polyvinylidene difluoride (PVDF) membranes and subjected to western immunoblotting with anti-PKM2 antibody.

MDA-MB-453 cells = assay: ECAR after rotenone/antimycin, MDA-MB-453 (Seahorse XF96); type: cell-based; conditions: Homo sapiens; MDA-MB-453, after rotenone/antimycin
Experimental: For XF96 experiments breast cancer cells were seeded in DMEM without bicarbonate at 16,000/well in XF96 V3 PET plates (Seahorse Biosciences) coated with CellTak (BD Biosciences, San Jose, CA, USA). […] HepG2 cells were seeded at 16K/well in XF96 V3 PET plates and left overnight for attachment. The medium was exchanged with DMEM without bicarbonate prior to readings on the XF96 Analyzer (Seahorse Biosciences).

Snu398 cells [2] = assay: Metabolomics analysis, Snu398 whole-cell extracts; type: cell-based, human; conditions: Snu398 whole-cell lysates, 10 μM, 24 h
[3] = biological target: Glycogen synthase kinase 3b (Homo sapiens, UniProt P49841); assay: Glycogen synthase kinase 3b ANT; type: biochemical; conditions: antagonist; read-out: pIC50 Glycogen synthase kinase 3b ANT (converted)
Text: ANT = antagonist (pIC50), AG = agonist (pEC50). pIC50 and pEC50 are the negative logarithms10 of IC50 and EC50, respectively. Click here for file

recombinant human LDHA = recombinant human LDHA (Homo sapiens, UniProt P00338); assay: recombinant human LDHA enzyme assay (lactate to pyruvate, NADH via diaphorase/resazurin)

Sequence of Glycogen synthase kinase 3b (P49841 whole entry): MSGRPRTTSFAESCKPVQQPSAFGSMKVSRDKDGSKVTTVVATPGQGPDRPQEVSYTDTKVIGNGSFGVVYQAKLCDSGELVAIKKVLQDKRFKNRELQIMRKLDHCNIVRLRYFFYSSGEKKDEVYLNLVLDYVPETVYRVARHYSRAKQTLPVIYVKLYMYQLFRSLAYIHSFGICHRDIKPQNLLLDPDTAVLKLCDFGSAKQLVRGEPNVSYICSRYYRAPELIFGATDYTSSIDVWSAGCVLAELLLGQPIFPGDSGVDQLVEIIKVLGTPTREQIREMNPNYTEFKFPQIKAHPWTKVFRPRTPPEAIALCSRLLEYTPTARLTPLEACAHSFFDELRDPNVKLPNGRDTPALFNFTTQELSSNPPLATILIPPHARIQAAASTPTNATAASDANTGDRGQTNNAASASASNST

SMILES	(3-13C)lactate production (HepG2 cells)	EC50 (Snu398 cells [1]; Homo sapiens, SNU-398, Snu398, 4 to 8 days, read-out: viable cell number EC50)	dose sufficient to induce cell death (Snu398 cells [1]; Snu398, with FK866)	sensitivity (ECAR) with LDHA knockdown (HCC1937 cells; HCC1937 stable LDHA shRNA)	sensitivity (ECAR) with LDHB knockdown (HCC1937 cells; HCC1937 stable LDHB shRNA)	PKM2 tetramerization (PKM2 in Snu398 cells)	EC50 (MDA-MB-453 cells)	increase of cytosolic glycolysis intermediates (Snu398 cells [2])	IC50 [3]	IC50 (recombinant human LDHA)
COc1ncc(-c2ccc3c(Nc4cc(Oc5cc(F)cc(F)c5)cc(C(=O)O)c4)c(S(=O)(=O)NC4CC4)cnc3c2)c(OC)n1 [Compound 1]	significantly slowed down lactate production	2.9 ± 0.6 µM	3 µM	did not change their sensitivity	more sensitive	dose dependently promoted formation of the active tetrameric form of PKM2	10 µM	–	–	–
COc1ncc(-c2ccc3c(Nc4cc(C(=O)O)cc(C5CCCC5)c4)c(S(=O)(=O)NC4CC4)cnc3c2)c(OC)n1 [Compound 2]	–	–	–	–	–	–	–	≤ 40 fold	31.6 µM	0.016 ± 0.007 µM
